US6825230B2, “Spiro and dispiro 1,2,4-trixolane antimalarials” (Medicines for Malaria Venture MMV, priority 2002, dated 2004)
In brackets after ≈: the same amount, converted by molar mass. Like-named read-outs stand apart in the source and are kept apart here.

What was measured:
[1] = test system: ANKA strain of P. berghei; assay: Single dose STI in vivo screen in infected mice; set-up: species or system Plasmodium berghei; conditions: for Survival (days) 10 mg/kg po: single 10 mg/kg po in 3% ethanol and 7% Tween 80; for Survival (days) 10 mg/kg po / Survival (days) 10 mg/kg SSV po / Survival (days) 10 mg/kg sc: untreated 6-7 days; for Activity (%) 10 mg/kg po: single 10 mg/kg po in 3% ethanol and 7% Tween 80 on day 1 post-infection; for Activity (%) 10 mg/kg po / Activity (%) 10 mg/kg SSV po / Activity (%) 10 mg/kg sc / Activity (%) 3 mg/kg SSV po: percent reduction in parasitemia on day 3; for Survival (days) 10 mg/kg SSV po: single 10 mg/kg po in SSV; for Activity (%) 10 mg/kg SSV po: single 10 mg/kg po in standard suspending vehicle (SSV) on day 1 post-infection; for Survival (days) 10 mg/kg sc: single 10 mg/kg sc in 3% ethanol and 7% Tween 80; for Activity (%) 10 mg/kg sc: single 10 mg/kg sc in 3% ethanol and 7% Tween 80 on day 1 post-infection; for Survival (days) 3 mg/kg SSV po / Activity (%) 3 mg/kg SSV po: single 3 mg/kg po in SSV
Protocol: In the single dose STI in vivo screen, Moro SPF or NMRI mice infected with the ANKA strain of P. berghei (groups of three mice) were treated on day one post-infection with trioxolanes dissolved or suspended in 3% ethanol and 7% Tween 80. […] SSV consists of 0.5% w/v CMC, 0.5% v/v benzyl alcohol, 0.4% v/v Tween 80, and 0.9% w/v sodium chloride in water. Antimalarial activity was measured by percent reduction in parasitemia on day three post-infection and survival times compared to an untreated control group. Survival to day 30 post-infection is considered to be a cure. […] Other factors influencing antimalarial activity include the stability of carbon radicals formed by β-scission subsequent to the initial electron transfer to the peroxide bond and the influence of steric effects remote from the peroxide bond on the interactions between carbon radicals and potential drug targets.
Moro NMRI male mice (Fu Albino specific pathogen free) weighing 18±2 g were infected intravenously (i.v.) with 2×10^7 P. berghei ANKA strain-infected erythrocytes from donor mice on day 0 of the experiment. From donor mice with circa 30% parasitemia, heparinized blood was taken and diluted in physiological saline to 10^8 parasitized erythrocytes per ml. An aliquot (0.2 ml) of this suspension was injected i.v. into experimental and control groups of mice. […] Throughout the experiments, mice were kept in groups of three or five animals in Makrolon type II cages in an air-conditioned animal room at 22 to 23° C.
They were administered per os (p.o.) in a total volume of 0.01 ml per gram of mouse. The activity of the compound was determined by a variety of methods outlined in subsequent sections. Survival time was also recorded, and survival to day 30 post-infection was considered to be a cure.

[2] = test system: chloroquine-resistant K1 strain of P. falciparum; assay: In vitro antimalarial semiautomated microdilution assay ([3H]-hypoxanthine incorporation), K1 strain; format: cell-based, Plasmodium falciparum; conditions: Plasmodium falciparum
Protocol: (§1) Various OZ compounds were tested by the semiautomated microdilution assay against intraerythrocytic forms of Plasmodium falciparum derived from asynchronous stock cultures.
(§2) Fifty percent inhibitory concentration (IC50) were estimated by Logit regression analysis.

[3] = test system: chloroquine-sensitive NF54 strain of P. falciparum; assay: In vitro antimalarial semiautomated microdilution assay ([3H]-hypoxanthine incorporation), NF54 strain; format: cell-based, Plasmodium falciparum; conditions: Plasmodium falciparum
Protocol: as §1, §2

[4] = K1, 72 h, read-out: IC50 (ng/ml) K1, chloroquine-resistant K1 strain, 72 h incubation
[5] = NF54, 72 h, read-out: IC50 (ng/ml) NF54, chloroquine-sensitive NF54 strain, 72 h incubation
[6] = chloroquine-resistant K1 strain, 72 h incubation, read-out: IC50 (ng/ml) K1

SMILES	Survival (days) 10 mg/kg po [1] [days]	Activity (%) 10 mg/kg po [1] [%]	Survival (days) 10 mg/kg SSV po [1]	Activity (%) 10 mg/kg SSV po [1] [%]	Survival (days) 10 mg/kg sc [1] [days]	Activity (%) 10 mg/kg sc [1] [%]	IC50 [2, 4] [ng/mL]	IC50 [3, 5] [ng/mL]	Survival (days) 3 mg/kg SSV po [1]	Activity (%) 3 mg/kg SSV po [1] [%]	IC50 [2, 6] [ng/mL]	IC50 ([3]; chloroquine-sensitive NF54 strain, 72 h incubation, read-out: IC50 (ng/ml) NF54) [ng/mL]
CC1(C)C2CCC1(CS(=O)(=O)N1CCC3(CC1)OOC1(O3)C3CC4CC(C3)CC1C4)C(=O)C2 (stereo not drawn) [OZ91, Adamantane-2-spiro-3′-8′-[(1′S)-10′-camphorsulfonyl]-1′,2′,4′-trioxa-8′-azaspiro[4.5]decane]	5.7	20	6.0 days	0	7.3	85	1.4 (≈ 2.92 nM)	0.42 (≈ 0.876 nM)				
CCCCS(=O)(=O)N1CCC2(CC1)OOC1(O2)C2CC3CC(C2)CC1C3 (stereo not shown) [OZ92, Adamantane-2-spiro-3′-8′-(1′-butanesulfonyl)-1′,2′,4′-trioxa-8′-azaspiro[4.5]decane]	6.7	81	6.3 days	35	10.0	99.98	1.6 (≈ 4.15 nM)	0.4 (≈ 1.04 nM)				
O=C(CN1C(=O)c2ccccc2C1=O)N1CCC2(CC1)OOC1(O2)C2CC3CC(C2)CC1C3 (stereo not shown) [OZ93, Adamantane-2-spiro-3′-8′-(phthalimidoacetyl)-1′,2′,4′-trioxa-8′-azaspiro[4.5]decane]	6.7	57	6.0 days	3	13.3	100	3.3 (≈ 7.29 nM)	0.92 (≈ 2.03 nM)				
c1ccc2c(c1)-c1ccccc1C21OOC2(O1)C1CC3CC(C1)CC2C3 (stereo not shown) [OZ94, Adamantane-2-spiro-3′-1′,2′,4′-trioxolane-5′-spiro-9″-fluorene]	6.0	21	5.7 days	0	5.3	11	57 (≈ 165 nM)	28 (≈ 80.8 nM)				
CN(C)C(=O)N1CCC2(CC1)OOC1(O2)C2CC3CC(C2)CC1C3 (stereo not shown) [OZ133, Adamantane-2-spiro-3′-8′-[(dimethylamino)carbonyl]-1′,2′,4′-trioxa-8′-azaspiro[4.5]decane]	7.0	94	7.3 days	97	7.0	72	0.7 (≈ 2.08 nM)					
N[C@H]1CC[C@]2(CC1)OOC1(O2)C2CC3CC(C2)CC1C3 (stereo partly shown) [OZ137]	5.7	0	6.3 days	6	7.0	61		18 (≈ 64.4 nM)				
C1CCC(NC2CCC3(CC2)OOC2(O3)C3CC4CC(C3)CC2C4)CC1 (stereo not shown) [OZ162]							0.5 (≈ 1.38 nM)	0.71 (≈ 1.96 nM)				
CC(C)N(C(=O)N1CCC2(CC1)OOC1(O2)C2CC3CC(C2)CC1C3)C(C)C (stereo not shown) [OZ194, Adamantane-2-spiro-3′-8′-[(diisopropylamino)carbonyl]-1′,2′,4′-trioxa-8′-azaspiro[4.5]decane]	8.3	87	8.0 days	73	20.3	99.95		6.6 (≈ 16.8 nM)				
CC(C)(C)CC(=O)N[C@H]1CC[C@]2(CC1)OOC1(O2)C2CC3CC(C2)CC1C3 (stereo partly shown) [OZ195]							2.2 (≈ 5.83 nM)	3.7 (≈ 9.8 nM)				
O=C1CCC(=O)N1C[C@H]1CC[C@]2(CC1)OOC1(O2)C2CC3CC(C2)CC1C3 (stereo partly shown) [OZ197]							1 (≈ 2.66 nM)	2 (≈ 5.33 nM)				
NCC[C@H]1CC[C@]2(CC1)OOC1(O2)C2CC3CC(C2)CC1C3 (stereo partly shown) [OZ229]							0.24 (≈ 0.781 nM)	0.23 (≈ 0.748 nM)				
O=C(NC[C@H]1CC[C@]2(CC1)OO[C@]1(O2)C2CC3CC(C2)CC1C3)c1cccnc1 [OZ273]			11.7 days	99.58					7.2 days	64	0.97 (≈ 2.43 nM)	
CCOC(=O)NC[C@H]1CC[C@]2(CC1)OO[C@]1(O2)C2CC3CC(C2)CC1C3 [OZ289]			13.4 days	99.94					7.4 days	92		0.56 (≈ 1.53 nM)
NC(=O)CCNC[C@H]1CC[C@]2(CC1)OO[C@]1(O2)C2CC3CC(C2)CC1C3 [OZ319]							0.41 (≈ 1.12 nM)	0.91 (≈ 2.5 nM)				
O=CNCC(=O)NC[C@H]1CC[C@]2(CC1)OO[C@]1(O2)C2CC3CC(C2)CC1C3 [OZ322]			10.0 days	98					9.4 days	61	0.9 (≈ 2.38 nM)	
c1cnc(OC[C@H]2CC[C@]3(CC2)OO[C@]2(O3)C3CC4CC(C3)CC2C4)nc1 [OZ325]			8.8 days						6.2 days	30		
c1cnc(NC[C@H]2CC[C@]3(CC2)OO[C@]2(O3)C3CC4CC(C3)CC2C4)nc1 [OZ326]			7.4 days	80					6.0 days	7		
NC(=O)[C@@H]1CCCN1C[C@H]1CC[C@]2(CC1)OO[C@]1(O2)C2CC3CC(C2)CC1C3 [OZ327]			9.8 days	97					7.0 days	72		
[O-][n+]1ccccc1SC[C@H]1CC[C@]2(CC1)OO[C@]1(O2)C2CC3CC(C2)CC1C3 [OZ328]			8.6 days	99.77					7.6 days	75		
Nc1nccnc1C(=O)NC[C@H]1CC[C@]2(CC1)OO[C@]1(O2)C2CC3CC(C2)CC1C3 [OZ330]			12.2 days						7.2 days	82		
Cn1nnnc1SC[C@H]1CC[C@]2(CC1)OO[C@]1(O2)C2CC3CC(C2)CC1C3 [OZ331]			9.0 days						7.0 days	66		
Cn1nnnc1S(=O)(=O)C[C@H]1CC[C@]2(CC1)OO[C@]1(O2)C2CC3CC(C2)CC1C3 [OZ332]			6.0/6.0 days	8					6.0/6.0 days	0		
C[C@H](N)C(=O)NC[C@H]1CC[C@]2(CC1)OO[C@]1(O2)C2CC3CC(C2)CC1C3 [OZ335]			9.2 days						10.0 days	97		
NCCC(=O)NC[C@H]1CC[C@]2(CC1)OO[C@]1(O2)C2CC3CC(C2)CC1C3 [OZ336]			9.2 days						9.6 days	98		
O=C(NC[C@H]1CC[C@]2(CC1)OO[C@]1(O2)C2CC3CC(C2)CC1C3)[C@@H]1CCCN1 [OZ337]			8.6 days							97		
N[C@H]1CCN(C(=O)C[C@H]2CC[C@]3(CC2)OO[C@]2(O3)C3CC4CC(C3)CC2C4)C1 [OZ338]			9.8 days						8.0 days			
N=C(N)NC(=O)C[C@H]1CC[C@]2(CC1)OO[C@]1(O2)C2CC3CC(C2)CC1C3 [OZ341]			8.0 days	97					7.0 days	32		
O=C(C[C@H]1CC[C@]2(CC1)OO[C@]1(O2)C2CC3CC(C2)CC1C3)N1CCS(=O)(=O)CC1 [OZ342]			6.8 days	27					6.4 days	0		
